Measured values as given in PubChem BioAssay AID330 (DTP/NCI, 2004).
Several values for one entry are separate records, joined by “and”; a condition that tells them apart may be missing. Equal entries are not always repeated. Toxic doses and inconclusive results are not listed. How the source made its calls: active means survival T/C of 150% or more; inactive means T/C below 125% in these data.

Test system: P388 leukemia ip, CD2F1 mice, survival T/C
Experiment: NCI In Vivo Anticancer Drug Screen. Data for tumor model P388 Leukemia (intraperitoneal) in CD2F1 (CDF1) mice
Details: endpoint: median survival time, higher = longer survival
Outline: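 Mice carrying the transplanted tumor received test compound or vehicle. Survival was recorded in each group, and the value is the treated-group measurement divided by that of the vehicle-treated control group.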

[1] = dose: 50.0 mg/kg/injection, schedule: Q01DX009 (ip), vehicle: Klucel (hydroxypropylcellulose) (HPC)
[2] = dose: 100.0 mg/kg/injection, schedule: Q01DX009 (ip), vehicle: Klucel (hydroxypropylcellulose) (HPC)
[3] = dose: 200.0 mg/kg/injection, schedule: Q01DX009 (ip), vehicle: Klucel (hydroxypropylcellulose) (HPC)
[4] = dose: 25.0 mg/kg/injection, schedule: Q01DX009 (ip), vehicle: saline with Tween-80
[5] = dose: 50.0 mg/kg/injection, schedule: Q01DX009 (ip), vehicle: saline with Tween-80
[6] = dose: 100.0 mg/kg/injection, schedule: Q01DX009 (ip), vehicle: saline with Tween-80
[7] = dose: 200.0 mg/kg/injection, schedule: Q01DX009 (ip), vehicle: saline with Tween-80
[8] = dose: 60.0 mg/kg/injection, schedule: Q01DX005 (ip), vehicle: saline with Tween-80
[9] = dose: 120.0 mg/kg/injection, schedule: Q01DX005 (ip), vehicle: saline with Tween-80
[10] = dose: 240.0 mg/kg/injection, schedule: Q01DX005 (ip), vehicle: saline with Tween-80
[11] = dose: 50.0 mg/kg/injection, schedule: Q01DX005 (ip), vehicle: saline with Tween-80
[12] = dose: 100.0 mg/kg/injection, schedule: Q01DX005 (ip), vehicle: saline with Tween-80
[13] = dose: 200.0 mg/kg/injection, schedule: Q01DX005 (ip), vehicle: saline with Tween-80
[14] = dose: 50.0 mg/kg/injection, schedule: Q01DX005 (ip), vehicle: Klucel (hydroxypropylcellulose) (HPC)
[15] = dose: 100.0 mg/kg/injection, schedule: Q01DX005 (ip), vehicle: Klucel (hydroxypropylcellulose) (HPC)
[16] = dose: 200.0 mg/kg/injection, schedule: Q01DX005 (ip), vehicle: Klucel (hydroxypropylcellulose) (HPC)
[17] = dose: 50.0 mg/kg/injection, schedule: Q01DX005 (ip), vehicle: saline
[18] = dose: 100.0 mg/kg/injection, schedule: Q01DX005 (ip), vehicle: saline
[19] = dose: 200.0 mg/kg/injection, schedule: Q01DX005 (ip), vehicle: saline

Measured: T/C

CCOC(=O)NN(C(=O)OCC)C(=C(C1CCCCC1)N1CCOCC1)N(NC(=O)OCC)C(=O)OCC
inactive: [1] 95 % of control | [2] 98 % of control | [3] 94 % of control

CCOC(=O)c1nc(Cl)nc(Cl)c1I
inactive: dose: 3.13 mg/kg/injection, schedule: Q01DX009 (ip), vehicle: distilled water + Tween-80 99 % of control | dose: 6.25 mg/kg/injection, schedule: Q01DX009 (ip), vehicle: distilled water + Tween-80 110 % of control | dose: 12.5 mg/kg/injection, schedule: Q01DX009 (ip), vehicle: distilled water + Tween-80 112 % of control and 123 % of control | dose: 25.0 mg/kg/injection, schedule: Q01DX009 (ip), vehicle: distilled water + Tween-80 101 % of control and 112 % of control | dose: 50.0 mg/kg/injection, schedule: Q01DX009 (ip), vehicle: distilled water + Tween-80 90 % of control

O=C(NCCCl)NCCCl
inactive: dose: 10.0 mg/kg/injection, schedule: Q01DX009 (ip), vehicle: saline 105 % of control and 108 % of control | dose: 20.0 mg/kg/injection, schedule: Q01DX009 (ip), vehicle: saline 101 % of control and 102 % of control | dose: 40.0 mg/kg/injection, schedule: Q01DX009 (ip), vehicle: saline 104 % of control and 108 % of control | dose: 80.0 mg/kg/injection, schedule: Q01DX009 (ip), vehicle: saline 102 % of control and 109 % of control | dose: 160.0 mg/kg/injection, schedule: Q01DX009 (ip), vehicle: saline 101 % of control and 104 % of control | dose: 320.0 mg/kg/injection, schedule: Q01DX009 (ip), vehicle: saline 102 % of control and 106 % of control

O=C(NC1CC1)c1ccccc1
inactive: [4] 96 % of control | [5] 100 % of control | [6] 87 % of control | [7] 87 % of control

COCCOCCOCCOCCOCCN
inactive: dose: 100.0 mg/kg/injection, schedule: Q04DX003 (ip), vehicle: saline 100 % of control | dose: 200.0 mg/kg/injection, schedule: Q04DX003 (ip), vehicle: saline 100 % of control | dose: 400.0 mg/kg/injection, schedule: Q04DX003 (ip), vehicle: saline 104 % of control

Nc1nc(N)c2[nH]c(CNc3ccc(C(=O)O)cc3)nc2n1
inactive: [8] 89 % of control | [9] 89 % of control | [10] 86 % of control

O=C(CCCCC(=O)N/N=C/c1cccc([N+](=O)[O-])c1)N/N=C/c1cccc([N+](=O)[O-])c1
inactive: [8] 100 % of control | [9] 92 % of control | [10] 94 % of control

CC(C)(C)OC(=O)c1cccc(Br)c1
inactive: [11] 101 % of control | [12] 104 % of control | [13] 105 % of control

CC(C)P(C(C)C)C(C)C
inactive: dose: 100.0 mg/kg/injection, schedule: Q01DX001 (ip), vehicle: saline with Tween-80 104 % of control | dose: 200.0 mg/kg/injection, schedule: Q01DX001 (ip), vehicle: saline with Tween-80 104 % of control | dose: 400.0 mg/kg/injection, schedule: Q01DX001 (ip), vehicle: saline with Tween-80 95 % of control

COc1ccc(-c2n[nH]c(-c3ccc(OC)cc3)c2N=Nc2ccc(S(=O)(=O)Nc3nnc(C)s3)cc2)cc1
inactive: dose: 100.0 mg/kg/injection, schedule: Q04DX002 (ip), vehicle: saline with Tween-80 103 % of control | dose: 200.0 mg/kg/injection, schedule: Q04DX002 (ip), vehicle: saline with Tween-80 103 % of control | dose: 400.0 mg/kg/injection, schedule: Q04DX002 (ip), vehicle: saline with Tween-80 94 % of control

CCOC(=O)c1c[nH]c(=S)n(CCOC)c1=O
inactive: [4] 92 % of control | [5] 108 % of control | [6] 115 % of control

O=C1CSC(=S)N1N1C(=O)CSC1=S
inactive: [1] 107 % of control | [2] 102 % of control | [3] 96 % of control

Cc1cccc(NC(=O)C(=O)CC(=O)c2ccc([N+](=O)[O-])cc2)c1C
inactive: [11] 105 % of control | [12] 108 % of control | [13] 106 % of control

O=[N+]([O-])c1ccc(-c2nnn(CCCN3CCOCC3)c2N2CCCCC2)cc1
inactive: [14] 107 % of control | [15] 107 % of control | [16] 107 % of control

C1CC[N-]CC1.C1CC[N-]CC1.C1CC[N-]CC1.C1CC[N-]CC1.[Cl][Rh][Cl]
inactive: dose: 3.13 mg/kg/injection, schedule: Q01DX009 (ip), vehicle: saline with Tween-80 120 % of control | dose: 4.0 mg/kg/injection, schedule: Q01DX009 (ip), vehicle: saline 118 % of control | dose: 6.25 mg/kg/injection, schedule: Q01DX009 (ip), vehicle: saline with Tween-80 120 % of control and 123 % of control | dose: 12.5 mg/kg/injection, schedule: Q01DX009 (ip), vehicle: saline with Tween-80 120 % of control | [4] 92 % of control

COC(=O)C1(C(=O)O)ON1C(C)(C)C (stereo not drawn)
inactive: [14] 100 % of control | [15] 100 % of control | [16] 99 % of control

COc1cccc(OC)c1N(CCO)CCO
inactive: [5] 101 % of control | [6] 95 % of control | [7] 106 % of control

CC(CN(C)C)C(/C=C/c1ccc(Cl)c(Cl)c1)=N\Nc1ccccc1 (stereo not drawn)
inactive: [8] 87 % of control | [9] 93 % of control | [10] 87 % of control

CCOC(=O)c1ccccn1
inactive: dose: 12.5 mg/kg/injection, schedule: Q01DX009 (ip), vehicle: saline 95 % of control | dose: 25.0 mg/kg/injection, schedule: Q01DX009 (ip), vehicle: saline 98 % of control | dose: 50.0 mg/kg/injection, schedule: Q01DX009 (ip), vehicle: saline 101 % of control | dose: 100.0 mg/kg/injection, schedule: Q01DX009 (ip), vehicle: saline 100 % of control

CN(C)CCCNC(=O)c1nn(-c2ccccc2)c2c1N(C)S(=O)(=O)c1ccccc1-2
inactive: [17] 92 % of control | [18] 99 % of control | [19] 101 % of control

Nc1ncnc2nc(/N=N/SCCC(=O)O)[nH]c12
inactive: [11] 108 % of control | [12] 103 % of control | [13] 100 % of control

CC(C)n1c(Cl)c(C=O)c2ccccc21
inactive: dose: 100.0 mg/kg/injection, schedule: Q01DX001 (ip), vehicle: Klucel (hydroxypropylcellulose) (HPC) 94 % of control | dose: 200.0 mg/kg/injection, schedule: Q01DX001 (ip), vehicle: Klucel (hydroxypropylcellulose) (HPC) 87 % of control | dose: 400.0 mg/kg/injection, schedule: Q01DX001 (ip), vehicle: Klucel (hydroxypropylcellulose) (HPC) 98 % of control

N#CC(C#N)=NNc1ccc([N+](=O)[O-])cc1Cl
inactive: dose: 6.25 mg/kg/injection, schedule: Q01DX009 (ip), vehicle: Klucel (hydroxypropylcellulose) (HPC) 103 % of control | dose: 12.5 mg/kg/injection, schedule: Q01DX009 (ip), vehicle: Klucel (hydroxypropylcellulose) (HPC) 103 % of control

CC(=O)C1(O)Cc2c(O)c3c(c(O)c2C(OC2CC(N)C(O)C(C)O2)C1C)C(=O)c1ccccc1C3=O (stereo not drawn)
inactive: dose: 0.6 mg/kg/injection, schedule: Q04DX003 (ip), vehicle: water 100 % of control | dose: 1.2 mg/kg/injection, schedule: Q04DX003 (ip), vehicle: water 108 % of control | dose: 2.4 mg/kg/injection, schedule: Q04DX003 (ip), vehicle: water 108 % of control | dose: 4.8 mg/kg/injection, schedule: Q04DX003 (ip), vehicle: water 106 % of control | dose: 9.6 mg/kg/injection, schedule: Q04DX003 (ip), vehicle: water 118 % of control

COC(=O)C(CCl)NC(C)=O (stereo not drawn)
inactive: [17] 97 % of control | [18] 100 % of control | [19] 101 % of control

c1ccc2c(c1)CCC1=C2S/C(=C2/SC3=C(S2)c2ccccc2CC3)S1
inactive: dose: 7.5 mg/kg/injection, schedule: Q01DX005 (ip), vehicle: saline with Tween-80 94 % of control | dose: 15.0 mg/kg/injection, schedule: Q01DX005 (ip), vehicle: saline with Tween-80 100 % of control | dose: 30.0 mg/kg/injection, schedule: Q01DX005 (ip), vehicle: saline with Tween-80 100 % of control
